Measured values as given in patent US20200071316A1, “ACTIVATORS OF THE RETINOIC ACID INDUCIBLE GENE "RIG-I" PATHWAY AND METHODS OF USE THEREOF” (Kineta Immuno-Oncology LLC, priority 2018, published 2020).
Marks after values point to notes of the source that are not given here.

What was measured:
[1] = system: CXCL10 secretion by CT26 cells; assay: RIG-I dependent CXCL10 secretion by CT26 colon carcinoma cells (ELISA); format: cell-based, murine; settings: 24 h
Method: (§1) The CT26 murine colon carcinoma cell line (ATCC) was used to evaluate the induction of CXCL10 secretion. CXCL10 is an important chemokine in tumor immune biology that recruits tumor-specific T cells to the tumor. To confirm that compound-mediated CXCL10 production was RIG-I specific, RIG-I deficient CT2-RIG-1−/− cells were generated by Kineta using CRISPR technology.
(§2) CT26 cells were seeded at a density of 1×10^4 cells per well on a 96-well tissue culture plate in 100 μL of cell culture and cells were incubated at 37° C. and 5% CO2 for 24 hr. Next, CT26 cells were treated with compounds at the indicated concentrations. CXCL10 was quantified by ELISA from supernatants taken 24 h after compound stimulation by use of the CXCL10 DuoSet ELISA kit (Cat # DY466, R&D, Minneapolis, Minn., USA) according to the manufacturer's instructions.
(§3) CXCL10 secretion by CT26 cells in response to compounds (in an amount of 5 to 20 μM) of the present disclosure is shown in Table 8. The compound-induced CXCL10 production was RIG-I dependent, since none of the compounds mediated CXCL10 secretion in RIG-I deficient CT26 RIG-1−/− cells. The compounds (10 μM, *20 μM, **5 μM) are indicated in the table as follows: “−” indicates less than 100 pg/mL; “+” indicates 100-199 pg/mL; “++” indicates 200-399 pg/mL; “+++” indicates 400-799 pg/mL; “++++” indicates 800 to 1599 pg/mL; “+++++” indicates greater than or equal to 1600 pg/ml.

[2] = system: RIG-I deficient CT26 RIG-1−/− cells; assay: CXCL10 secretion in RIG-I deficient CT26 RIG-1−/− cells (ELISA); format: cell-based, murine; settings: 24 h
Method: as §1, §2, §3

[3] = system: IRF3 signaling pathway (IRF-inducible ISG54 promotor) in THP1-Lucia ISG cells; assay: THP1-Lucia ISG reporter assay: induction of IRF3-dependent luciferase activity; format: cell-based; settings: Homo sapiens, PMA-differentiated cells, 18 h after stimulation, read-out: THP1 ISG: fold increase of IRF3-dependent luciferase activity over background; for fold induction at 10 µM: 10 μM compound
Method: The compounds were evaluated in the THP1-Lucia™ ISG (interferon stimulated genes) reporter assay to determine if the compounds activate the IRF3 signaling pathway. The THP1-Lucia™ cells (InvivoGen) express the secreted luciferase (Lucia) reporter gene under the control of an IRF-inducible promotor. The reporter cell line was developed from human monocytic leukemia THP-1 cells.
(§4) The promotor was comprised of five IFN-stimulated response elements (ISRE) fused to an ISG54 minimal promotor which is unresponsive to NF-kB or AP-1 pathways. […] The IRF3-deficient THP1-Lucia™ ISG IRF3 −/− reporter cell line was generated by CRISPR technology from the parent THP1-Lucia™ ISG reporter cell line.
(§5) 5 THP1-Lucia™ ISG cells and IRF3-deficient THP1-Lucia™ ISG IRF3 −/− cells were differentiated with PMA (100 ng/ml) and stimulated with compounds at the indicated concentrations (5 to 20 μM), positive control, or not treated (background). Luciferase secretion was quantified using the QUANTI-Luc luciferase assay system (InvivoGen) 18 h after stimulation. Data are shown as fold increase luciferase activity over background in Table 7 and represent the IRF3-dependent ISG54 promotor activity by the THP1-Lucia™ ISG cells in response to compounds. […] The fold increase of compounds (10 μM, *20 μM, **5 μM) induced IRF3 dependent luciferase activity is indicated as follows: “−” indicates less than 2.4 fold increase; “+” indicates a 2.4-4.9 fold increase; “++” indicates a 5-9.9 fold increase; “+++” indicates a 10-19 fold increase; “++++” indicates a 20-39 fold increase; “+++++” indicates greater than or equal to 40 fold increase.

[4] = system: THP1-Lucia ISG IRF3 −/− cells; assay: IRF3-deficient THP1-Lucia ISG IRF3 −/− reporter assay (counter-screen); format: cell-based; settings: Homo sapiens, 18 h after stimulation, read-out: THP1 ISG IRF3 −/−: fold increase of luciferase activity over background; for fold induction at 10 µM: 10 μM compound
Method: as §4, §5

Row | SMILES | CXCL10 secretion by CT26 cells ([1]; 10 μM compound) | CXCL10 secretion by CT26 RIG-I −/− cells ([2]; 10 μM compound) | fold induction at 10 µM [3] | fold induction at 10 µM [4] | CXCL10 secretion by CT26 cells ([1]; 20 μM compound (*)) | CXCL10 secretion by CT26 RIG-I −/− cells ([2]; 20 μM compound (*)) | fold induction at 20 µM ([3]; 20 μM compound (*)) | fold induction at 20 µM ([4]; 20 μM compound (*))
1 | O=C(Nc1nc2ccc(S(=O)(=O)N3CCCC3)cc2s1)c1cc2c(cc1OCCCCN1CCOCC1)OCO2 [Example 43, 6-[4-(morpholin-4-yl)butoxy]-N-[6-(pyrrolidine-1-sulfonyl)-1,3-benzothiazol-2-yl]-2H-1,3-benzodioxole-5-carboxamide] | ++++ (“++++” indicates 800 to 1599 pg/mL) | − (“−” indicates less than 100 pg/mL) | 5 to 9.9 | < 2.4 |  |  |  | 
2 | O=C(Nc1nc2ccc(S(=O)(=O)N3CCCC3)cc2s1)c1ccc(-c2ccccc2)cc1OCCCCN1CCOCC1 [Example 41, 3-[4-(morpholin-4-yl)butoxy]-N-[6-(pyrrolidine-1-sulfonyl)-1,3-benzothiazol-2-yl]-[1,1′-biphenyl]-4-carboxamide] | +++++ (“+++++” indicates greater than or equal to 1600 pg/ml) | − (“−” indicates less than 100 pg/mL) | 20 to 39 | < 2.4 |  |  |  | 
3 | O=C(Nc1nc2ccc(SC(F)F)cc2s1)c1cc2ccccc2cc1OCCCCN1CCOCC1 [Example 49, N-{6-[(difluoromethyl)sulfanyl]-1,3-benzothiazol-2-yl}-3-[4-(morpholin-4-yl)butoxy]naphthalene-2-carboxamide] | +++ (“+++” indicates 400-799 pg/mL) | − (“−” indicates less than 100 pg/mL) | 20 to 39 | < 2.4 |  |  |  | 
4 | O=C(Nc1nc2ccc(OCC(F)(F)F)cc2s1)c1cc2ccccc2cc1OCCCCN1CCOCC1 [Example 58, 3-[4-(morpholin-4-yl)butoxy]-N-[6-(2,2,2-trifluoroethoxy)-1,3-benzothiazol-2-yl]naphthalene-2-carboxamide] | ++ (“++” indicates 200-399 pg/mL) | − (“−” indicates less than 100 pg/mL) | 5 to 9.9 | < 2.4 |  |  |  | 
5 | CS(=O)(=O)Nc1ccc2nc(NC(=O)c3cc4ccccc4cc3OCCN3CCOCC3)sc2c1 [Example 28, N-(6-methanesulfonamido-1,3-benzothiazol-2-yl)-3-[2-(morpholin-4-yl)ethoxy]naphthalene-2-carboxamide] | + (“+” indicates 100-199 pg/mL) | − (“−” indicates less than 100 pg/mL) | 2.4 to 4.9 | < 2.4 |  |  |  | 
6 | CS(=O)(=O)Nc1ccc2nc(NC(=O)c3cc4ccccc4cc3OCCCCN3CCOCC3)sc2c1 [Example 27, N-(6-methanesulfonamido-1,3-benzothiazol-2-yl)-3-[4-(morpholin-4-yl)butoxy]naphthalene-2-carboxamide] | +++ (“+++” indicates 400-799 pg/mL) | − (“−” indicates less than 100 pg/mL) | 20 to 39 | < 2.4 |  |  |  | 
7 | O=C(Nc1nc2ccc(S(=O)(=O)N3CCCC3)cc2s1)c1ccc(-c2cccnc2)cc1 [Example 53, 4-(pyridin-3-yl)-N-[6-(pyrrolidine-1-sulfonyl)-1,3-benzothiazol-2-yl]benzamide] | − (“−” indicates less than 100 pg/mL) | − (“−” indicates less than 100 pg/mL) | 2.4 to 4.9 | < 2.4 |  |  |  | 
8 | CS(=O)(=O)c1ccc2nc(NC(=O)c3cc4ccccc4cc3OCCCCN3CCOCC3)sc2c1 [Example 45, N-(6-methanesulfonyl-1,3-benzothiazol-2-yl)-3-[4-(morpholin-4-yl)butoxy]naphthalene-2-carboxamide] | ++++ (“++++” indicates 800 to 1599 pg/mL) | − (“−” indicates less than 100 pg/mL) | 5 to 9.9 | < 2.4 |  |  |  | 
9 | Cn1c(C(=O)Nc2nc3ccc(S(=O)(=O)N4CCCC4)cc3s2)cc2ccccc21 [Example 52, 1-methyl-N-[6-(pyrrolidine-1-sulfonyl)-1,3-benzothiazol-2-yl]-1H-indole-2-carboxamide] |  |  | 10 to 19 | < 2.4 | +* (“+” indicates 100-199 pg/mL) | −* (“−” indicates less than 100 pg/mL) |  | 
10 | O=C(Nc1nc2ccc(S(=O)(=O)N3CCOCC3)cc2s1)c1cc2ccccc2cc1OCCN1CCOCC1 [Example 16, 3-[2-(morpholin-4-yl)ethoxy]-N-[6-(morpholine-4-sulfonyl)-1,3-benzothiazol-2-yl]naphthalene-2-carboxamide] | ++++ (“++++” indicates 800 to 1599 pg/mL) | − (“−” indicates less than 100 pg/mL) | 20 to 39 | < 2.4 |  |  |  | 
11 | COC(=O)c1ccc2nc(NC(=O)c3ccc4ccccc4c3)sc2c1 [Example 2, methyl 2-(naphthalene-2-amido)-1,3-benzothiazole-6-carboxylate] | ++++ (“++++” indicates 800 to 1599 pg/mL) | − (“−” indicates less than 100 pg/mL) | ≥ 40 | < 2.4 |  |  |  | 
12 | O=C(Nc1nc2ccc(SC(F)F)cc2s1)c1ccc2ccccc2c1 [Example 4, N-{6-[(difluoromethyl)sulfanyl]-1,3-benzothiazol-2-yl}naphthalene-2-carboxamide] | ++++ (“++++” indicates 800 to 1599 pg/mL) | − (“−” indicates less than 100 pg/mL) | ≥ 40 | < 2.4 |  |  |  | 
13 | O=C(Nc1cc2ccc(S(=O)(=O)N3CCCC3)cc2s1)c1cc2c(cc1OCCCCN1CCOCC1)OCO2 [Example 73, 6-[4-(morpholin-4-yl)butoxy]-N-[6-(pyrrolidine-1-sulfonyl)-1-benzothiophen-2-yl]-2H-1,3-benzodioxole-5-carboxamide] | ++++ (“++++” indicates 800 to 1599 pg/mL) | − (“−” indicates less than 100 pg/mL) | 20 to 39 | < 2.4 |  |  |  | 
14 | O=C(Nc1nc2ccc(SC(F)F)cc2s1)c1cc2ccccc2cc1OCCN1CCOCC1 [Example 48, N-{6-[(difluoromethyl)sulfanyl]-1,3-benzothiazol-2-yl}-3-[2-(morpholin-4-yl)ethoxy]naphthalene-2-carboxamide] | ++ (“++” indicates 200-399 pg/mL) | − (“−” indicates less than 100 pg/mL) |  |  |  |  | 2.4 to 4.9 | < 2.4
15 | O=C(Nc1nc2ccc(S(=O)(=O)N3CC4(COC4)C3)cc2s1)c1cc2ccccc2cc1OCCCCN1CCOCC1 [Example 55, 3-[4-(morpholin-4-yl)butoxy]-N-(6-{2-oxa-6-azaspiro[3.3]heptane-6-sulfonyl}-1,3-benzothiazol-2-yl)naphthalene-2-carboxamide] | ++ (“++” indicates 200-399 pg/mL) | − (“−” indicates less than 100 pg/mL) | 2.4 to 4.9 | < 2.4 |  |  |  | 
